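A five-concentration, 48-hour dose response in 96-well plates underlies each endpoint, interpolated linearly between surrounding concentrations. GI50 = concentration required for 50% inhibition of growth. TGI denotes the concentration required for complete inhibition of growth.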
Columns and labels:
Experiment in all cases: NCI-60 cell line screen, 48 h
CCRF-CEM leukemia = test system: CCRF-CEM leukemia
COLO 205 colon = test system: COLO 205 colon
HOP-92 NSCLC = test system: HOP-92 NSCLC
MOLT-4 leukemia = test system: MOLT-4 leukemia
OVCAR-5 ovarian = test system: OVCAR-5 ovarian
SF-295 CNS = test system: SF-295 CNS
SN12C renal = test system: SN12C renal
TK-10 renal = test system: TK-10 renal
UACC-257 melanoma = test system: UACC-257 melanoma
DU-145 prostate = test system: DU-145 prostate

Compound | TGI (CCRF-CEM leukemia) [µM] | TGI (COLO 205 colon) [µM] | TGI (HOP-92 NSCLC) [µM] | TGI (MOLT-4 leukemia) [µM] | TGI (OVCAR-5 ovarian) [µM] | TGI (SF-295 CNS) [µM] | TGI (SN12C renal) [µM] | TGI (TK-10 renal) [µM] | TGI (UACC-257 melanoma) [µM] | GI50 (CCRF-CEM leukemia) [µM] | GI50 (COLO 205 colon) [µM] | GI50 (DU-145 prostate) [µM] | TGI (DU-145 prostate) [µM] | GI50 (MOLT-4 leukemia) [µM] | GI50 (OVCAR-5 ovarian) [µM] | GI50 (SF-295 CNS) [µM] | GI50 (SN12C renal) [µM] | GI50 (TK-10 renal) [µM] | GI50 (UACC-257 melanoma) [µM] | GI50 (HOP-92 NSCLC) [µM]
CC(C)Cc1ccc(C(C)/C=C2\CCC(CN3CCCC3)C2=O)cc1 (configuration not stated) | 8.71 | 22.1 | 38 | 9.64 | 36.3 | 30.8 | 13.3 | 9.92 | 31.1 | – | – | – | – | – | – | – | – | – | – | –
CCCCNC(=O)Oc1ccc2c(=O)c3sc4c(=O)c5ccccc5c(=O)c4c3c(=O)c2c1 | 6.83 | 3.5 | – | 6.57 | 4.55 | 0.373 | 0.35 | 3.78 | 0.7 | 2 | 1.81 | 0.158 | 0.294 | 2.17 | 2.02 | 0.176 | 0.174 | 2.19 | 0.237 | –
Cc1cccc2c1O/C(=C\c1ncc([N+](=O)[O-])n1C)C2=O | 0.597 | 1.42 | 1.64 | 0.833 | 4.45 | 2.62 | – | 0.66 | 5.2 | 0.0701 | 0.254 | 0.238 | 0.762 | 0.0449 | 0.576 | 0.516 | – | 0.257 | 0.542 | 0.279
COc1ccc(C(=O)C(Br)C(Br)C(=O)O)cc1 (configuration not stated) | – | 46.8 | > 100 | 36.1 | > 100 | > 100 | > 100 | > 100 | > 100 | – | – | – | > 100 | – | – | – | – | – | – | –
COc1cc2c(=O)n(CCCn3ccnc3)c3c4cc5c(cc4ccc3c2cc1OC)OCO5 | > 100 | > 100 | 28.9 | – | – | 12.5 | > 100 | > 100 | – | 0.34 | 0.291 | 0.51 | > 100 | – | – | 0.331 | 0.635 | 36 | – | 0.831
CC(C(=O)c1ccccc1)C1(O)C(=O)Nc2ccccc21 (configuration not stated) | > 100 | > 100 | > 100 | > 100 | > 100 | > 100 | > 100 | > 100 | > 100 | – | – | – | – | – | – | – | – | – | – | –
C/C=C1\C(=O)O[C@@H]2C1C[C@@H]1O[C@H]2[C@H](C)CCC/C(C)=C/CC[C@@]1(C)O (some centres not stated) | 11.8 | 41.8 | 31.5 | > 100 | 26.8 | 27.6 | 13 | 13.5 | 10.9 | 3.53 | 8.16 | – | – | 4.59 | 13.5 | 13.3 | 3.54 | 4.46 | 4.2 | 7.62
O=S(=O)(NCCCNc1cc(-c2cn(-c3ccccc3)nc2-c2cccc(O)c2)ccn1)c1cccc2ccccc12 | > 100 | 3.29 | 7.28 | – | > 100 | 4.32 | > 100 | 44.9 | – | 3.12 | 1.69 | 4 | > 100 | – | 8.43 | 1.64 | 4.8 | 6.11 | – | 1.41
NCCCn1c2c(c3cc4c(cc3c1=O)OCO4)C(=O)c1ccccc1-2 | 0.379 | > 100 | 2.11 | 0.0742 | – | 1.48 | 2.49 | 5.75 | 4.7 | 0.0279 | 3.61 | 0.907 | 2.63 | 0.0223 | – | 0.483 | 0.975 | 1.98 | 1.38 | 0.437
N#Cc1nn(C2OC(COC(=O)c3ccccc3)C(OC(=O)c3ccccc3)C2OC(=O)c2ccccc2)c2nc[nH]c(=O)c12 (configuration not stated) | 84.7 | > 100 | – | 95.4 | > 100 | > 100 | > 100 | > 100 | > 100 | – | – | – | > 100 | – | – | – | – | – | – | –
Cc1cccc2c1NC(=O)[C@@]21[C@H](C(=O)c2ccccc2)[C@]2(C(=O)Nc3ccccc32)[C@H]2CCCN21 | > 100 | > 100 | 59.1 | > 100 | > 100 | > 100 | – | > 100 | > 100 | 59.6 | 46.2 | > 100 | > 100 | 52.7 | > 100 | 74.6 | – | 36.8 | > 100 | 24.7
Cc1ccc2c(N/N=C\c3ccco3)cc(C)nc2n1 | 6.37 | 3.75 | – | 8.83 | 26.3 | 14.3 | 16.5 | – | 8.72 | 2.23 | 1.88 | 6.79 | 20.1 | 2.67 | 11.8 | 3.31 | 4.68 | – | 2.79 | –
O=C1C(Cl)=C(Nc2cccc(O)c2)C(=O)N1c1cccc(Cl)c1 | 31.8 | > 100 | – | 71.4 | > 100 | > 100 | 59.8 | > 100 | – | 10.7 | 56.5 | 69.5 | > 100 | 23 | 62.5 | 61.6 | 21.9 | > 100 | – | –
CC(C)c1cccc(C(C)C)c1N=C(N)C#N | > 100 | > 59.1 | > 100 | > 66 | > 100 | > 100 | > 100 | > 100 | > 79.6 | – | – | – | – | – | – | – | – | – | – | –

Source: PubChem BioAssay (NCI)
